Measurements from patent publication US6730661B1, “Nutritional composition which contain non-digestible polysaccharides and use thereof to reduce transport through tight junctions” (N. V. Nutricia, priority 1999, dated 2004).

Tests used:
[1] = system: duodenum biopsies of a child suffering from microvillus inclusion disease (MVID); assay: Permeability to HRP of duodenal suction biopsies of a microvillus inclusion disease patient in Ussing chamber; set-up: species or system human; conditions: after adding 4.2 g/l to luminal compartment
Text: Suction biopsies were taken from the duodenum of a child suffering from microvillus inclusion disease (MVID).

[2] = system: guinea pig intestinal epithelium; assay: HRP flow over guinea pig intestinal epithelium in Ussing chamber, tight junctions opened by caprate; conditions: in vitro, FIG. 2
Description: Use was made of a model set-up for determination of the effect of the polysaccharides used.
A test animal, such as a rat or guinea pig, was brought under narcosis. The stomach wall was then opened and a piece of the ileum tied off. The intestinal tissue was removed and stripped of layers of muscle. The preparation thus obtained was then stretched between two compartments through which oxygenated solutions flowed (FIG. 1). The preparation was treated either with buffer (control or blank) or caprate in buffer in order to open the tight junctions (100% permeability) or with the combination of caprate and a certain concentration of polysaccharide in buffer. As a measure of the permeability the transport of HRP (horseradish peroxidase) over the preparation was determined in accordance with known methods.
The in vitro effect of dextran (70 kD) on the increased HRP flow caused by caprate in a guinea pig intestinal epithelium is shown in FIG. 2.

pig intestine = assay: in situ ischaemia reperfusion model in pigs, HRP flow in jejunum segments; assay type: in vivo; conditions: 5.6 g/l in lumen during ischaemia, pig under full narcosis, caudal jejunum, FIG. 5
Description: The figure relates to experiments with a pig under full narcosis, in which segments of the caudal section of the jejunum were taken. The effect of 5.6 g/l dextran (70 kD)(D) in the in situ ischaemia reperfusion model in pigs as a function of the duration of ischaemia was determined in comparison with control (C) where no dextran was introduced into the lumen during ischaemia.

Substance: dextran [dextran (70 kD)]
- HRP in the paracellular spaces or tight junctions by electron microscopy [1]: No further HRP could be detected
- effect on the increased HRP flow caused by caprate [2]: inhibition of the effects of caprate
- HRP flow in the pig intestine increased by ischaemia, compared with control (pig intestine): significant fall
